Tests used:
[1] = biological target: T1, recombinant NLRP6 (Homo sapiens, UniProt P59044); assay: Biolayer interferometry (BLI) binding of peptides to recombinant NLRP6; details: 30 °C, PBS with 0.01% Tween-20
T1 construct: DNA encoding full-length NLRP6 was codon optimized; His (N); MBP (N); made in house; host or cells: E. coli (DE3)
T1 sequence (P59044 1-892): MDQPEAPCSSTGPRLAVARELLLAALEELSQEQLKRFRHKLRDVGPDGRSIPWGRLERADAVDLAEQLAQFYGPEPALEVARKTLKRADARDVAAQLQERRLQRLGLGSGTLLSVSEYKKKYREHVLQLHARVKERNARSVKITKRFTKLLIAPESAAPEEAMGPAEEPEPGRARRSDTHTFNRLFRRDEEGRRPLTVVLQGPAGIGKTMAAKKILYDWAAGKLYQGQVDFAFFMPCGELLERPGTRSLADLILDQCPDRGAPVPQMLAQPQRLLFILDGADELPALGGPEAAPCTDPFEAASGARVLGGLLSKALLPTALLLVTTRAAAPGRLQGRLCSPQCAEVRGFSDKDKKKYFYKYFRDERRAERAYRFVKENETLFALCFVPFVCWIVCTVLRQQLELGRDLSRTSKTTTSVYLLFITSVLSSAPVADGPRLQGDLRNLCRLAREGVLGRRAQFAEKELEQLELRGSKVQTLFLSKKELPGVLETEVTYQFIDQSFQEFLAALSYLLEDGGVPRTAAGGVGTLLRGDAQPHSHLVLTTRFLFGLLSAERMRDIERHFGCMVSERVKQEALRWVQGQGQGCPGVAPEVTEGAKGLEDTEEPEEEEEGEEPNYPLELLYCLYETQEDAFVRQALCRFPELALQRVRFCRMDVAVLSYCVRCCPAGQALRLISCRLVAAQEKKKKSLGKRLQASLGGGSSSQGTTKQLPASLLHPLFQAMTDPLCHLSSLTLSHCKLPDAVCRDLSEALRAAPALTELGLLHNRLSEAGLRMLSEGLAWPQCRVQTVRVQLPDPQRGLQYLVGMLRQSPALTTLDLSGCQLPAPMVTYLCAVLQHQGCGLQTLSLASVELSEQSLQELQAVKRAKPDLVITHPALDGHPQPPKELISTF
Procedure: DNA encoding full-length NLRP6 was codon optimized and chemically synthesized by Genewiz (Soochow, China). The DNA sequence was subcloned into NdeI-XhoI sites of a pDB-His-MBP vector (kindly given by Pro. Chenggui Han, China Agricultural University, Beijing, China). Recombinant NLRP6 protein was expressed and purified following previous reports, with slight modifications. Briefly, the protein was expressed in E. coli (DE3) at 16 °C with 0.5 mM IPTG induction overnight. Then, the protein was purified by Ni affinity and gel filtration chromatography. The p85α WT and p85α mutant sequences were chemically synthesized and subcloned into BamHI-XhoI sites of a pGEX-6P-1 plasmid by GenScript (Nanjing, China). The E. coli (DE3) transformed with the plasmids were grown in LB medium at 37 °C. The culture medium was supplemented with 0.5 mM IPTG followed by incubation at 16 °C for 16–18 h. […] The protein extinction coefficient was calculated by ProtParam, and the protein concentration was determined by the ultraviolet spectrophotometry method.
Eleven α-helical peptides were synthesized (Supplementary Data 7). […] The interaction between the peptides and NLRP6 was determined by BLI using an Octet Red 96 instrument (FortéBio, CA, USA). […] Responses (nanometre shift) were calculated using data that were double reference subtracted using reference wells and nonspecific binding of the biosensor to the analyte. […]

[2] = system: NLRP6/p85α interaction; assay: Competitive ELISA, NLRP6 binding to p85α; assay type: biochemical; details: 10 μM peptide (PepC +, Pep9 ++), 1 h
Procedure: DNA encoding full-length NLRP6 was codon optimized and chemically synthesized by Genewiz (Soochow, China). The DNA sequence was subcloned into NdeI-XhoI sites of a pDB-His-MBP vector (kindly given by Pro. Chenggui Han, China Agricultural University, Beijing, China). Recombinant NLRP6 protein was expressed and purified following previous reports, with slight modifications. Briefly, the protein was expressed in E. coli (DE3) at 16 °C with 0.5 mM IPTG induction overnight. Then, the protein was purified by Ni affinity and gel filtration chromatography. The p85α WT and p85α mutant sequences were chemically synthesized and subcloned into BamHI-XhoI sites of a pGEX-6P-1 plasmid by GenScript (Nanjing, China). The E. coli (DE3) transformed with the plasmids were grown in LB medium at 37 °C. The culture medium was supplemented with 0.5 mM IPTG followed by incubation at 16 °C for 16–18 h. The proteins were purified by glutathione-affinity chromatography (Smart-Life Sciences, Changzhou, China) followed by gel filtration chromatography (Cytiva, MA, USA) using PBS. The protein extinction coefficient was calculated by ProtParam, and the protein concentration was determined by the ultraviolet spectrophotometry method.
The 96-well plate was coated with bovine serum albumin (BSA) or purified NLRP6. HRP-conjugated PepC or HRP-conjugated Pep9 was incubated with BSA or NLRP6 for 1 h, and the unbound peptide was washed away. The HRP substrate was added, and the absorbance was detected at 450 nm. For the competitive ELISA, the 96-well plate was coated with purified p85α. The binding of NLRP6 to p85α competed with 10 μM PepC or 5 μM, 10 μM, 20 μM Pep9 for 1 h.

For “SAEGYQYRALYD [Pep1, peptide found on the p85α SH3 domain; selected as the control named PepC]”, the “binding to NLRP6 (in words)” value [1] was “did not interact with NLRP6”, the “ELISA value (NLRP6 binding to p85α)” value ([2]; replicate 1, no peptide 2.20) was 1.90 and the “ELISA value (NLRP6 binding to p85α)” value ([2]; replicate 2, no peptide 2.10) was 2.05. The “ELISA value (NLRP6 binding to p85α)” value ([2]; replicate 3, no peptide 2.45) was 1.80.
